Test results taken from the NIST ThermoML archive (doi:10.1021/je300280s).
Where “and” joins values, the source holds several entries; their conditions need not be identical. Equal values may be shown once. Numbers after ± are expanded uncertainties.

Legend:
[1] = excess molar enthalpy (molar enthalpy of mixing); xn = mol fraction of the nth substance listed; conditions: 101.3 kPa, Liquid, Flow calorimetry
[2] = xn = mol fraction of the nth substance listed; conditions: 101.3 kPa, Liquid, Vibrating tube method

CCCC(=O)OC [methyl butanoate] + O
excess molar enthalpy ([1]; 288.15 K, x1 = 0.000628): -0.00163 kcal/mol and -0.00164 kcal/mol | excess molar enthalpy ([1]; 288.15 K, x1 = 0.000941): -0.00247 ± 0.000203 kcal/mol | excess molar enthalpy ([1]; 288.15 K, x1 = 0.000943): -0.00244 ± 0.000203 kcal/mol | excess molar enthalpy ([1]; 288.15 K, x1 = 0.001255): -0.00319 ± 0.00021 kcal/mol | excess molar enthalpy ([1]; 288.15 K, x1 = 0.001257): -0.00321 ± 0.00021 kcal/mol | excess molar enthalpy ([1]; 288.15 K, x1 = 0.001569): -0.00403 ± 0.000217 kcal/mol | excess molar enthalpy ([1]; 288.15 K, x1 = 0.00157): -0.00397 ± 0.000215 kcal/mol | excess molar enthalpy ([1]; 288.15 K, x1 = 0.001882): -0.00473 ± 0.000225 kcal/mol | excess molar enthalpy ([1]; 288.15 K, x1 = 0.001884): -0.00482 ± 0.000225 kcal/mol | excess molar enthalpy ([1]; 298.15 K, x1 = 0.000628): -0.00122 kcal/mol and -0.00123 kcal/mol | excess molar enthalpy ([1]; 298.15 K, x1 = 0.000942): -0.00184 kcal/mol and -0.00183 kcal/mol | excess molar enthalpy ([1]; 298.15 K, x1 = 0.001256): -0.0024 kcal/mol and -0.00241 kcal/mol | excess molar enthalpy ([1]; 298.15 K, x1 = 0.001569): -0.00296 ± 0.000208 kcal/mol | excess molar enthalpy ([1]; 298.15 K, x1 = 0.00157): -0.003 ± 0.000208 kcal/mol | excess molar enthalpy ([1]; 298.15 K, x1 = 0.001882): -0.0036 ± 0.000213 kcal/mol | excess molar enthalpy ([1]; 298.15 K, x1 = 0.001883): -0.00351 ± 0.000213 kcal/mol | excess molar enthalpy ([1]; 298.15 K, x1 = 0.002195): -0.00402 ± 0.000215 kcal/mol | excess molar enthalpy ([1]; 298.15 K, x1 = 0.002197): -0.00404 ± 0.000217 kcal/mol | excess molar enthalpy ([1]; 308.15 K, x1 = 0.000626): -0.000837 ± 0.000191 kcal/mol | excess molar enthalpy ([1]; 308.15 K, x1 = 0.000627): -0.000839 ± 0.000191 kcal/mol | excess molar enthalpy ([1]; 308.15 K, x1 = 0.000939): -0.00124 ± 0.000194 kcal/mol | excess molar enthalpy ([1]; 308.15 K, x1 = 0.000941): -0.00124 ± 0.000194 kcal/mol | excess molar enthalpy ([1]; 308.15 K, x1 = 0.001253): -0.00165 ± 0.000198 kcal/mol | excess molar enthalpy ([1]; 308.15 K, x1 = 0.001254): -0.00161 ± 0.000198 kcal/mol | excess molar enthalpy ([1]; 308.15 K, x1 = 0.001565): -0.00199 ± 0.000201 kcal/mol | excess molar enthalpy ([1]; 308.15 K, x1 = 0.001567): -0.00199 ± 0.000201 kcal/mol | excess molar enthalpy ([1]; 308.15 K, x1 = 0.001878): -0.00241 ± 0.000203 kcal/mol | excess molar enthalpy ([1]; 308.15 K, x1 = 0.00188): -0.00237 ± 0.000203 kcal/mol | excess molar enthalpy ([1]; 308.15 K, x1 = 0.002191): -0.00271 ± 0.000206 kcal/mol | excess molar enthalpy ([1]; 308.15 K, x1 = 0.002194): -0.00272 ± 0.000206 kcal/mol | excess molar enthalpy ([1]; 318.15 K, x1 = 0.000941): -0.00066 ± 0.000191 kcal/mol | excess molar enthalpy ([1]; 318.15 K, x1 = 0.000942): -0.000669 ± 0.000191 kcal/mol | excess molar enthalpy ([1]; 318.15 K, x1 = 0.001254): -0.000865 ± 0.000191 kcal/mol | excess molar enthalpy ([1]; 318.15 K, x1 = 0.001255): -0.000872 ± 0.000191 kcal/mol | excess molar enthalpy ([1]; 318.15 K, x1 = 0.001567): -0.00106 ± 0.000194 kcal/mol | excess molar enthalpy ([1]; 318.15 K, x1 = 0.001569): -0.00106 ± 0.000194 kcal/mol | excess molar enthalpy ([1]; 318.15 K, x1 = 0.001879): -0.00126 ± 0.000196 kcal/mol | excess molar enthalpy ([1]; 318.15 K, x1 = 0.001882): -0.00124 ± 0.000194 kcal/mol | excess molar enthalpy ([1]; 318.15 K, x1 = 0.002192): -0.00141 ± 0.000196 kcal/mol | excess molar enthalpy ([1]; 318.15 K, x1 = 0.002195): -0.00143 ± 0.000196 kcal/mol | mass density ([2]; 288.15 K, x1 = 0.000628): 999.058 ± 0.033 kg/m3 | mass density ([2]; 288.15 K, x1 = 0.000941): 999.037 ± 0.033 kg/m3 | mass density ([2]; 288.15 K, x1 = 0.000943): 999.038 ± 0.033 kg/m3 | mass density ([2]; 288.15 K, x1 = 0.001255): 999.019 ± 0.033 kg/m3 | mass density ([2]; 288.15 K, x1 = 0.001257): 999.019 ± 0.033 kg/m3 | mass density ([2]; 288.15 K, x1 = 0.001569): 998.999 ± 0.033 kg/m3 | mass density ([2]; 288.15 K, x1 = 0.00157): 999.001 ± 0.033 kg/m3 | mass density ([2]; 288.15 K, x1 = 0.001882): 998.985 ± 0.033 kg/m3 | mass density ([2]; 288.15 K, x1 = 0.001884): 998.981 ± 0.033 kg/m3 | mass density ([2]; 298.15 K, x1 = 0.000628): 996.968 ± 0.034 kg/m3 and 996.965 ± 0.034 kg/m3 | mass density ([2]; 298.15 K, x1 = 0.000942): 996.917 ± 0.034 kg/m3 and 996.921 ± 0.034 kg/m3 | mass density ([2]; 298.15 K, x1 = 0.001256): 996.885 ± 0.034 kg/m3 and 996.884 ± 0.034 kg/m3 | mass density ([2]; 298.15 K, x1 = 0.001569): 996.85 ± 0.034 kg/m3 | mass density ([2]; 298.15 K, x1 = 0.00157): 996.838 ± 0.034 kg/m3 | mass density ([2]; 298.15 K, x1 = 0.001882): 996.8 ± 0.034 kg/m3 | mass density ([2]; 298.15 K, x1 = 0.001883): 996.81 ± 0.034 kg/m3 | mass density ([2]; 298.15 K, x1 = 0.002195): 996.774 ± 0.035 kg/m3 | mass density ([2]; 298.15 K, x1 = 0.002197): 996.773 ± 0.035 kg/m3 | mass density ([2]; 308.15 K, x1 = 0.000626): 993.913 ± 0.036 kg/m3 | mass density ([2]; 308.15 K, x1 = 0.000627): 993.914 ± 0.036 kg/m3 | mass density ([2]; 308.15 K, x1 = 0.000939): 993.855 ± 0.14 kg/m3 | mass density ([2]; 308.15 K, x1 = 0.000941): 993.855 ± 0.14 kg/m3 | mass density ([2]; 308.15 K, x1 = 0.001253): 993.793 ± 0.037 kg/m3 | mass density ([2]; 308.15 K, x1 = 0.001254): 993.798 ± 0.037 kg/m3 | mass density ([2]; 308.15 K, x1 = 0.001565): 993.741 ± 0.21 kg/m3 | mass density ([2]; 308.15 K, x1 = 0.001567): 993.742 ± 0.21 kg/m3 | mass density ([2]; 308.15 K, x1 = 0.001878): 993.673 ± 0.26 kg/m3 | mass density ([2]; 308.15 K, x1 = 0.00188): 993.682 ± 0.26 kg/m3 | mass density ([2]; 308.15 K, x1 = 0.002191): 993.626 ± 0.16 kg/m3 | mass density ([2]; 308.15 K, x1 = 0.002194): 993.63 ± 0.21 kg/m3 | mass density ([2]; 318.15 K, x1 = 0.000941): 989.988 ± 0.039 kg/m3 | mass density ([2]; 318.15 K, x1 = 0.000942): 989.983 ± 0.039 kg/m3 | mass density ([2]; 318.15 K, x1 = 0.001254): 989.911 ± 0.039 kg/m3 | mass density ([2]; 318.15 K, x1 = 0.001255): 989.908 ± 0.039 kg/m3 | mass density ([2]; 318.15 K, x1 = 0.001567): 989.837 ± 0.04 kg/m3 | mass density ([2]; 318.15 K, x1 = 0.001569): 989.832 ± 0.04 kg/m3 | mass density ([2]; 318.15 K, x1 = 0.001879): 989.762 ± 0.04 kg/m3 | mass density ([2]; 318.15 K, x1 = 0.001882): 989.758 ± 0.04 kg/m3 | mass density ([2]; 318.15 K, x1 = 0.002192): 989.694 ± 0.041 kg/m3 | mass density ([2]; 318.15 K, x1 = 0.002195): 989.679 ± 0.041 kg/m3
